# Measured values reported in PMC9609098, “Xanthine Oxidase Inhibitory Activity and Chemical Composition of Pistacia chinensis Leaf Essential Oil” (Pharmaceutics, 2022).
# Read-outs that look alike come from different tables or passages of the source.
# Columns and labels:
# xanthine oxidase [1] = biological target: T1, xanthine oxidase (Homo sapiens, UniProt P47989); conditions: cited from earlier work
# [2] = biological target: xanthine oxidase (EC 1.1.3.22) (Homo sapiens, UniProt P47989); test: biochemical; format: biochemical; conditions: for IC50: read-out: IC50 against xanthine oxidase (converted)
# xanthine oxidase (EC 1.1.3.22), sequence (P47989 whole entry, species assumed): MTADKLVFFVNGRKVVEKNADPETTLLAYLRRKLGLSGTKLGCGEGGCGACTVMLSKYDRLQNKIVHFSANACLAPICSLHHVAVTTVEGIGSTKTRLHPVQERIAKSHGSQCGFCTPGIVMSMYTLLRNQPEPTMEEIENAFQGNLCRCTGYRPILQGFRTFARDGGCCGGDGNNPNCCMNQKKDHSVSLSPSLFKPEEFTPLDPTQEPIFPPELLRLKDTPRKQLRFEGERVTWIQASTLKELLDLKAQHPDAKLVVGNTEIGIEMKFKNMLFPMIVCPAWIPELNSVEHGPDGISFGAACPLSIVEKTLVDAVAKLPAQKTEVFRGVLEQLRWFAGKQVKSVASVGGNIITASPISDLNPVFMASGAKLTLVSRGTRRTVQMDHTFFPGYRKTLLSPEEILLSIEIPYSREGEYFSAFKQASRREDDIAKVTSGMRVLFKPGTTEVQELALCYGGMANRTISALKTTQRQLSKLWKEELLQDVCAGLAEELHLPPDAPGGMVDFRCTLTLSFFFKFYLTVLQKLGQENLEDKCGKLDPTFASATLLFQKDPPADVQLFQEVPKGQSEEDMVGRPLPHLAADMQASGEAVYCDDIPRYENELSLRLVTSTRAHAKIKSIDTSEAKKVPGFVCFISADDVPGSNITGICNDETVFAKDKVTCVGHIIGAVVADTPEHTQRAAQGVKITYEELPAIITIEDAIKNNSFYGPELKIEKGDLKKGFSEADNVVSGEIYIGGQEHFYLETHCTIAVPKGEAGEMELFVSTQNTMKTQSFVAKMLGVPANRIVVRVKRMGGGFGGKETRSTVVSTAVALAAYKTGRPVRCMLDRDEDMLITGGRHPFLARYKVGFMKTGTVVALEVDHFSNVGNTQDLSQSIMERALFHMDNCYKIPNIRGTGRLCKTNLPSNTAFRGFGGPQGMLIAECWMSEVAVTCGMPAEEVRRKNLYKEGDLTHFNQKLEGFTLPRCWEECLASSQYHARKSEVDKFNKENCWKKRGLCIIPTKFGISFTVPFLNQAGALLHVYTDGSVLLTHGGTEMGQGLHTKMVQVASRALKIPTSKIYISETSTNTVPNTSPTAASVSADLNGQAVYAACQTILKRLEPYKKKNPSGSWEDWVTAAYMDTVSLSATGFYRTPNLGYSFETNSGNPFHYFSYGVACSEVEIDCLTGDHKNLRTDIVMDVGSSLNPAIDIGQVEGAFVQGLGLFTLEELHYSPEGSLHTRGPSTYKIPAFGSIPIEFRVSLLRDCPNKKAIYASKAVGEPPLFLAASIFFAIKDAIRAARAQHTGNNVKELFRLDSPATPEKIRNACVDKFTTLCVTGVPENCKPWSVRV
# Protocol: Xanthine oxidase inhibitory activity of specimens was evaluated by using in vitro spectrophotometric analysis. Both hypoxanthine and xanthine were used as the substrate in the assay, respectively. We added 117 µL of potassium phosphate buffer (50 mM, pH 7.8), 3 µL of specimen solution, and 60 µL of 0.025 unit/mL xanthine oxidase (EC 1.1.3.22) and mixed well in a 96-well microplate, and the mixture was incubated for 10 min at room temperature (25 °C). We added 100 µL of 0.15 mM substrate (hypoxanthine/xanthine) into the well, and the solution was incubated in the dark for 30 min at 37 °C. Then, 20 µL of 1 N HCl was added to stop the reaction. Absorbance at 290 nm of each well was measured using an ELISA (enzyme-linked immunosorbent assay) microplate reader (SPECTROstar Nano, BMG LABTECH, Offenburg, Germany) after incubation. […] All the experiments were performed in triplicate. Inhibition of the xanthine oxidase inhibitory activity was determined by the following formula: Inhibition (%) = [(Acontrol − Acontrol’s blank) − (Asample − Asample’s blank)/(Acontrol − Acontrol’s blank)] × 100. The IC50, half maximal inhibitory concentration, was calculated from the concentration-response curve of the specimen.
# xanthine oxidase [3] = biological target: T1, xanthine oxidase; test: Enzyme kinetic study (Lineweaver–Burk plot); conditions: for Inhibition type on xanthine oxidase: both substrates, hypoxanthine and xanthine
# xanthine oxidase [4] = biological target: T1, xanthine oxidase; conditions: cited from earlier work; remark: listed apart in the source
# [5] = Hypoxanthine as the substrate, read-out: IC50 xanthine oxidase inhibition (converted)
# T1 sequence (P47989 whole entry, species assumed): as above
smiles,measurement,setting,value
COC(=O)c1cc(C(=O)O)c[nH]1 [2-metyl ester-1H-pyrrole-4-carboxilyc acid],IC50 xanthine oxidase inhibition,xanthine oxidase [1]; Xanthine as the substrate,48.86 µg/mL
"CC1=CCC2C(C1)C2(C)C (stereo not shown) [3-Carene, 3-carene]",IC50,[2]; Hypoxanthine as the substrate,810 µM
same,activity against xanthine oxidase (in words),[2]; Xanthine as the substrate,did not display activity
"Oc1ncnc2[nH]ncc12 [Allopurinol, reference compound]",Inhibition Type,xanthine oxidase [3]; Hypoxanthine as the substrate,Competitive
same,Vmax,"xanthine oxidase [3]; Hypoxanthine substrate, inhibitor 0.313 μg/mL",0.00025
same,Vmax,"xanthine oxidase [3]; Hypoxanthine substrate, inhibitor 0.625 μg/mL",0.00024
same,Vmax,"xanthine oxidase [3]; Hypoxanthine substrate, inhibitor 1.250 μg/mL",0.00024
same,Vmax,"xanthine oxidase [3]; Hypoxanthine substrate, inhibitor 2.500 μg/mL",0.00024
same,Inhibition Type,xanthine oxidase [3]; Xanthine as the substrate,Competitive
same,Vmax,"xanthine oxidase [3]; Xanthine substrate, inhibitor 0.313 μg/mL",0.00026
same,Vmax,"xanthine oxidase [3]; Xanthine substrate, inhibitor 0.625 μg/mL",0.00026
same,Vmax,"xanthine oxidase [3]; Xanthine substrate, inhibitor 1.250 μg/mL",0.00025
same,Vmax,"xanthine oxidase [3]; Xanthine substrate, inhibitor 2.500 μg/mL",0.00026
same,Inhibition type on xanthine oxidase,xanthine oxidase [3],competitive
same,Inhibition type against xanthine oxidase,xanthine oxidase [4],competitive-type inhibition
"C=C(C)[C@H]1CC=C(C)CC1 [Limonene, limonene]",IC50 against xanthine oxidase,[2]; Hypoxanthine as the substrate,37.69 ± 2.52 µg/mL
same,IC50,[2]; Hypoxanthine as the substrate,280 µM
same,IC50 against xanthine oxidase,[2]; Xanthine as the substrate,48.04 ± 0.78 µg/mL
same,IC50,[2]; Xanthine as the substrate,350 µM
same,Inhibition Type,xanthine oxidase [3]; Hypoxanthine as the substrate,Mixed
same,Vmax,"xanthine oxidase [3]; Hypoxanthine substrate, inhibitor 40 μg/mL",0.00027
same,Vmax,"xanthine oxidase [3]; Hypoxanthine substrate, inhibitor 50 μg/mL",0.00025
same,Vmax,"xanthine oxidase [3]; Hypoxanthine substrate, inhibitor 100 μg/mL",0.00024
same,Vmax,"xanthine oxidase [3]; Hypoxanthine substrate, inhibitor 200 μg/mL",0.00023
same,Inhibition Type,xanthine oxidase [3]; Xanthine as the substrate,Mixed
same,Vmax,"xanthine oxidase [3]; Xanthine substrate, inhibitor 40 μg/mL",0.00029
same,Vmax,"xanthine oxidase [3]; Xanthine substrate, inhibitor 50 μg/mL",0.00026
same,Vmax,"xanthine oxidase [3]; Xanthine substrate, inhibitor 100 μg/mL",0.00022
same,Vmax,"xanthine oxidase [3]; Xanthine substrate, inhibitor 200 μg/mL",0.0002
same,Inhibition type on xanthine oxidase,xanthine oxidase [3],mixed-type inhibitor
O=c1cc(-c2ccc(O)cc2)oc2cc(O)cc(O)c12 [apigenin],IC50,xanthine oxidase [1]; [5],130 µM
O=P(O)(O)O[C@H]1[C@H](OP(=O)(O)O)[C@@H](OP(=O)(O)O)[C@H](OP(=O)(O)O)[C@@H](OP(=O)(O)O)[C@H]1OP(=O)(O)O [phytic acid],IC50,"xanthine oxidase [1]; Xanthine as the substrate, read-out: IC50 (inhibition of the formation of uric acid)",~30000 µM
O=c1c(O)c(-c2ccc(O)c(O)c2)oc2cc(O)cc(O)c12 [quercetin],Inhibition type against xanthine oxidase,xanthine oxidase [4],mixed type
C[C@@H]1O[C@@H](OC[C@H]2O[C@@H](Oc3c(-c4ccc(O)c(O)c4)oc4cc(O)cc(O)c4c3=O)[C@H](O)[C@@H](O)[C@@H]2O)[C@H](O)[C@H](O)[C@H]1O [rutin],IC50,xanthine oxidase [1]; [5],99.9 µM
